Test results reported in patent EP0565593B1, “REDUCING PESTICIDAL INTERACTIONS IN CROPS” (priority 1990, dated 1992).

Tested on: Velvetleaf (VELE)
Assay: Greenhouse test Procedure VII (same examples)
Assay type: in vivo, Abutilon theophrasti
Details: Antidote + Biocide No. 1 in furrow
Source text: This procedure describes interaction among herbicide, biocide and antidote when the biocide and the antidote is applied to a soil furrow containing crop seed before emergence of the crop and the herbicide is applied after emergence of the crop and weeds. The soil and planting depth was described in Procedure IV. The containers for comparison, the biocide and antidote applications to soil furrows were described in Procedure VI. In this procedure, the seed beds of the first, second, third and fourth containers are covered by soil layers not treated with herbicide. The containers were then placed on a bench in a greenhouse and subirrigated as required for the duration of the test. The herbicide, dispersed or dissolved in water containing 0.25% v/v nonionic surfactant (X-77) was applied by a track sprayer (187 L/ha) to the emerged plants of the second, third and fourth containers about five days after planting. All treatments were run in duplicate. Plant response was observed according to Procedure IV. Variations in this procedure will be noted in the examples.
In this example, tests were conducted according to Procedure VII for the POE application of the herbicides following in-furrow application of COUNTER® 15G insecticide (BIOCIDE No. 1) and the antidote on the pre-planted test seeds. In this test, the herbicides were Nos. 1 (MON-12000), 10 (ALLY®) and #4 (HARMONY®) and the Antidote Nos. 1, 7, 12 and 33.
These in-furrow treatments comprised a 50-50 mix of blended granules of COUNTER with and without 5G granular antidotes at 7.4 + 7.4 mg/cm or 1.1 + 0.37 mg active ingredient (a.i.)/cm. The in-furrow initiation of the test was followed five (5) days later with POE application of the herbicides; observations were made eight (8) days later. Table 38 […]

For N#CCOc1ccc(Cl)c2cccnc12 [compound 33], the “% Inhibition VELE” value (Herbicide No. 1 0.14 Kg/Ha POE, 8 days after POE) was 90%, the “% Inhibition VELE” value (Herbicide No. 4 0.17 Kg/Ha POE, 8 days after POE) was 90% and the “% Inhibition VELE” value (Herbicide No. 5 0.07 Kg/Ha POE, 8 days after POE) was 90%. For the same compound, the “% Inhibition VELE” value (Herbicide No. 6 0.01 Kg/Ha POE) was 65%, the “% Inhibition VELE” value (Herbicide No. 7 0.56 Kg/Ha POE, 8 days after POE) was 65% and the “% Inhibition VELE” value (Herbicide No. 9 0.009 Kg/Ha POE) was 85%. The “% Inhibition VELE” value (Herbicide No. 10 0.002 Kg/Ha POE, 8 days after POE) was 90%, the “% Inhibition VELE” value (Herbicide No. 15 0.0044 Kg/Ha POE, 8 days after POE) was 80% and the “% Inhibition VELE” value (Herbicide No. 16 0.01 Kg/Ha POE) was 40%. The “% Inhibition VELE” value (Herbicide No. 18 0.0044 Kg/Ha POE) was 65%, the “% Inhibition VELE” value (Herbicide No. 19 0.28 Kg/Ha POE) was 60% and the “% Inhibition VELE” value (Herbicide No. 21 0.14 Kg/Ha POE) was 90%. For the same compound, the “% Inhibition VELE” value (Herbicide No. 23 0.0006 Kg/Ha POE) was 70%.
